Reference: paper PMC4122817, “Target Engagement Analysis and Link to Pharmacodynamic Endpoint for a Novel Class of CNS-penetrant and Efficacious p38α MAPK Inhibitors” (Journal of Neuroimmune Pharmacology, 2014)

Biological target: T1, p38α MAPK (Mus musculus, UniProt P47811)
T1 construct: gene Mapk14; endogenous p38α MAPK in the murine microglial BV-2 cell line
Test: western blot of phosphorylated substrate MK2 in LPS-stimulated BV2 cells (pMSK1 IC50 […]); in vivo effect lost in p38α T106M knock-in mice
Format: cell-based

T1 sequence (P47811 2-360): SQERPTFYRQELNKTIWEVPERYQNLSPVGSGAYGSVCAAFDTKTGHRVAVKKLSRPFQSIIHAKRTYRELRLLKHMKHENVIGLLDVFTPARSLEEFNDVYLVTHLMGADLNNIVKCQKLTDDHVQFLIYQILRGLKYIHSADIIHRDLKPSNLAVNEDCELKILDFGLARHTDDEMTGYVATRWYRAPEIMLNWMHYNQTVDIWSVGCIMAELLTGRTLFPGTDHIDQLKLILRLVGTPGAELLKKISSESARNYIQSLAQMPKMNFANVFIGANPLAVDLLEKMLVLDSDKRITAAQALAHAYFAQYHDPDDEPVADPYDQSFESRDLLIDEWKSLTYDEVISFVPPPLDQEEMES

IC50: 1200 nM
Substance: MW181
